For 21 compounds, IC50 and IC95 results are on record in patent US20100093811A1 (priority 2007, published 2010).

Structures can show the parent of a compound that is named as a salt. Where two headings read alike, the source gives them in different places.

A word on the IC50: it is the concentration that gives 50% inhibition. One may read the IC95 as the concentration at which the effect reaches the 95% level.

Test [1] concerns the target wild-type HIV-1 protease (Human immunodeficiency virus type 1 group M subtype B, UniProt P04585). In words: Assay for inhibition of microbial expressed HIV protease. Type of test: biochemical. A digest of the protocol:
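E. coli-expressed protease (5 pM) preincubated with inhibitor 30 min at room temperature in 50 mM sodium acetate pH 5.5, 100 mM NaCl, 0.1% BSA. Substrate Val-Ser-Gln-Asn-(betanapthyl)Ala-Pro-Ile-Val at 440 micromolar, 1 h at 30° C; acid-quenched, product peak area by C18 HPLC gives inhibition.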

The test system of test [2] is acute HIV infection of T-lymphoid cells. Description: Assay for inhibition of HIV replication (spread assay). It is filed as cell-based, HIV-1. Conditions: Human immunodeficiency virus 1, T-lymphoid; read-out: Spread - IC95. How it is done: • Assay for Inhibition of HIV Replication
Assays for the inhibition of acute HIV infection of T-lymphoid cells were conducted in accordance with Vacca, J. P. et al., Proc. Natl. Acad. Sci. USA 1994, 91: 4096.

Where [3] appears, read: wild-type HIV-1 protease expressed in E. coli, peptide substrate, pH 5.5, read-out: Enzyme Inhibition - IC50.

For `COC(=O)N[C@H](C(=O)N[C@H](CCC[C@@H](CO)N(CCC(C)C)S(=O)(=O)c1ccc(CO)cc1)C(F)(F)C(F)(F)F)C(c1ccccc1)c1ccccc1` [Example J12, N-[(1R,5S)-6-hydroxy-5-[{[4-(hydroxymethyl)phenyl]sulfonyl}(3-methylbutyl)amino]-1-(pentafluoroethyl)hexyl]-Nα-(methoxycarbonyl)-β-phenyl-L-phenylalaninamide], the IC50 in test [1] (setting [3]) is 0.036 nM. For the same compound, the IC95 in test [2] stood at 43 nM.

Consider `C#C[C@@H](CCC[C@@H](CO)N(CCC(C)C)S(=O)(=O)c1ccc(CO)cc1)NC(=O)[C@@H](NC(=O)OC)C(c1ccccc1)c1ccccc1` [Example J13, N-{(1R,5S)-1-ethynyl-6-hydroxy-5-[{[4-(hydroxymethyl)phenyl]sulfonyl}(3-methylbutyl)amino]hexyl}-Nα-(methoxycarbonyl)-β-phenyl-L-phenylalaninamide], for which the half-inhibitory concentration (IC50) in test [1] (setting [3]) stood at 0.01 nM. In test [2], the concentration for an effect of 95% (IC95) was found to be 6 nM.

Regarding `COC(=O)N[C@@H](Cc1ccccc1Cl)C(=O)N[C@H](CCC[C@@H](CO)N(CCC(C)C)S(=O)(=O)c1ccc(CO)cc1)C1CC1` [Example J14, 2-chloro-N-{(1R,5S)-1-cyclopropyl-6-hydroxy-5-[{[4-(hydroxymethyl)phenyl]sulfonyl}(3-methylbutyl)amino]hexyl}-Nα-(methoxycarbonyl)-L-phenylalaninamide], the 50% inhibitory concentration (IC50) in test [1] (setting [3]) was determined as 0.183 nM. For the same compound, the IC95 in test [2] came to 63 nM.

With `COC(=O)N[C@@H](Cc1ccccc1Cl)C(=O)N[C@H](CCC[C@@H](CO)N(CCC(C)C)S(=O)(=O)c1ccc([C@H](C)O)cc1)C1CC1` [Example J15, 2-chloro-N-{(1R,5S)-1-cyclopropyl-6-hydroxy-5-[({4-[(1S)-1-hydroxyethyl]phenyl}sulfonyl)(3-methylbutyl)amino]hexyl}-Nα-(methoxycarbonyl)-L-pbenylalaninamide], the 50% inhibitory concentration (IC50) in test [1] (setting [3]) was determined as 0.372 nM. Besides, the concentration for an effect of 95% (IC95) in test [2] came out at 42 nM.

As for `COC(=O)N[C@H](C(=O)N[C@H](CCC[C@@H](CO)N(CCC(C)C)S(=O)(=O)c1ccc(CO)cc1)C1CC1)C(c1ccc(F)cc1)c1ccc(F)cc1` [Example J16, N-{(1R,55)-1-cyclopropyl-6-hydroxy-5-[{[4-(hydroxymethyl)phenyl]sulfonyl}(3-methylbutyl)amino]hexyl}-4-fluoro-β-(4-fluorophenyl)-Nα-(methoxycarbonyl)-L-phenylalaninamide], the IC50 in test [1] (setting [3]) amounted to 0.01 nM. In addition, the IC95 in test [2] worked out at 25 nM.

On to `CC(C)CCN([C@H](CO)CCC[C@@H](NC(=O)[C@@H](N)C(c1ccc(F)cc1)c1ccc(F)cc1)C1CC1)S(=O)(=O)c1ccc(CO)cc1` [Example J17, N-{(1R,5S)-1-cyclopropyl-6-hydroxy-5-[{[4-(hydroxymethyl)phenyl]sulfonyl}(3-methylbutyl)amino]hexyl}-4-fluoro-β-(4-fluorophenyl)-L-phenylalaninamide hydrochloride], for which, in test [1], the concentration for half-maximal inhibition (IC50) worked out at 0.01 nM. The 95% effect concentration (IC95) in test [2] was 6 nM.

On to `CC(C)CCN([C@H](CO)CCC[C@@H](NC(=O)[C@@H](N)C(c1ccc(F)cc1)c1ccc(F)cc1)C1CC1)S(=O)(=O)c1ccc([C@H](C)O)cc1` [Example J18, N-{(1R,5S)-1-cyclopropyl-6-hydroxy-5-[({4-[(1S)-1-hydroxyethyl]phenyl}sulfonyl)(3-methylbutyl)amino]hexyl}-4-fluoro-β-(4-fluorophenyl)-L-phenylalaninamide hydrochloride], for which half-maximal inhibition in test [1] (IC50) was put at 0.01 nM. Moreover, the IC95 in test [2] came out at 8 nM.

For `CC[C@@H](CCC[C@@H](CO)N(CC(C)C)S(=O)(=O)c1ccc(CO)cc1)NC(=O)[C@@H](NC(=O)OC)C(c1ccccc1)c1ccccc1` [Example J19, N-{(1S,5S)-1-ethyl-6-hydroxy-5-[{[4-(hydroxymethyl)phenyl]sulfonyl}(isobutyl)amino]hexyl]-Nα-(methoxycarbonyl)-β-phenyl-L-phenylalaninamide], in test [1] (setting [3]), the IC50 was 0.034 nM. The IC95 in test [2] worked out at 11 nM.

For `CC[C@@H](CCC[C@@H](CO)N(CC(C)C)S(=O)(=O)c1ccc(CO)cc1)NC(=O)[C@@H](NC(=O)OC)C(c1ccc(F)cc1)c1ccc(F)cc1` [Example J20, N-{(1S,5S)-1-ethyl-6-hydroxy-5-[{[4-(hydroxymethyl)phenyl]sulfonyl}(isobutyl)amino]hexyl}-4-fluoro-β-(4-fluorophenyl)-Nα-(methoxycarbonyl)-L-phenylalaninamide], in test [1] (setting [3]), the IC50 was determined as 0.02 nM. In test [2], the IC95 is 50 nM.

As for `CC[C@@H](CCC[C@@H](CO)N(CC(C)C)S(=O)(=O)c1ccc(CO)cc1)NC(=O)[C@H](Cc1ccccc1Cl)NC(=O)OC` [Example J21, 2-chloro-N-{(1S,55)-1-ethyl-6-hydroxy-5-[{[4-(hydroxymethyl)phenyl]sulfonyl}(isobutyl)amino]hexyl}-Nα-(methoxycarbonyl)-L-phenylalaninamide], the 50% inhibitory concentration (IC50) in test [1] (setting [3]) was 0.419 nM. Besides, the 95% effect concentration (IC95) in test [2] was found to be 49 nM.

Regarding `COC(=O)N[C@H](C(=O)N[C@H](CCC[C@@H](CO)N(CC(C)C)S(=O)(=O)c1ccc(CO)cc1)C1CC1)C(c1ccccc1)c1ccccc1` [Example J22], the IC50 in test [1] (setting [3]) turned out to be 0.032 nM. The IC95 in test [2] was 15 nM.

Consider `COC(=O)N[C@H](C(=O)N[C@H](CCC[C@@H](CO)N(CC(C)C)S(=O)(=O)c1ccc(CO)cc1)C1CC1)C(c1ccc(F)cc1)c1ccc(F)cc1` [Example J23, N-{(1R,5S)-1-cyclopropyl-6-hydroxy-5-[{[4-(hydroxymethyl)phenyl]sulfonyl}(isobutyl)amino]hexyl}-4-fluoro-β-(4-fluorophenyl)-Nα-(methoxycarbonyl)-L-phenylalaninamide], for which the 50% inhibitory concentration (IC50) in test [1] (setting [3]) came out at 0.025 nM. The 95% effect concentration (IC95) in test [2] was 60 nM.

For the compound `CC[C@@H](CCC[C@@H](CO)N(CC(C)C)S(=O)(=O)c1ccc(CO)cc1)NC(=O)[C@@H](NC)C(c1ccccc1)c1ccccc1` [Example J24, N-{(1S,5S)-1-ethyl-6-hydroxy-5-[{[4-(hydroxymethyl)phenyl]sulfonyl}(isobutyl)amino]hexyl}-Nα-methyl-β-phenyl-L-phenylalaninamide hydrochloride], in test [1], it took 0.055 nM to reach half-maximal inhibition (IC50). The IC95 in test [2] worked out at 16 nM.

As for `CN[C@H](C(=O)N[C@H](CCC[C@@H](CO)N(CC(C)C)S(=O)(=O)c1ccc(CO)cc1)C1CC1)C(c1ccccc1)c1ccccc1` [Example J25, N-{(1R,55)-1-cyclopropyl-6-hydroxy-5-[{[4-(hydroxymethyl)phenyl]sulfonyl}(isobutyl)amino]hexyl}-Nα-methyl-β-phenyl-L-phenylalaninamide], the IC50 in test [1] (setting [3]) came to 0.08 nM. Besides, the 95% effect concentration (IC95) in test [2] was 17 nM.

Turning to `COC(=O)N[C@@H](Cc1ccccc1Cl)C(=O)N[C@H](CCC[C@@H](CO)N(CCC(C)C)S(=O)(=O)c1ccc(CO)cc1)C(C)C` [Example J26, 2-chloro-N-{(1R,5S)-6-hydroxy-5-[{[4-(hydroxymethyl)phenyl]sulfonyl}(3-methylbutyl)amino]-1-isopropylhexyl}-Nα-(methoxycarbonyl)-L-phenylalaninamide], the IC50 in test [1] (setting [3]) is 1.33 nM. The IC95 in test [2] is 110 nM.

In the case of `CC[C@@H](CCC[C@@H](CO)N(CCC(C)C)S(=O)(=O)c1ccc(CO)cc1)NC(=O)[C@@H](NC)C(c1ccccc1)c1ccccc1` [Example J27, N-{(1S,5S)-1-ethyl-6-hydroxy-5-[{[4-(hydroxymethyl)phenyl]sulfonyl}(3-methylbutyl)amino]hexyl}-Nα-methyl-β-phenyl-L-phenylalaninamide], the half-inhibitory concentration (IC50) in test [1] (setting [3]) is 0.025 nM. Moreover, the IC95 in test [2] turned out to be 6 nM.

Consider `CN[C@H](C(=O)N[C@H](CCC[C@@H](CO)N(CCC(C)C)S(=O)(=O)c1ccc(CO)cc1)C1CC1)C(c1ccccc1)c1ccccc1` [Example J28, N-{(1R,5S)-1-cyclopropyl-6-hydroxy-5-[{[4-(hydroxymethyl)phenyl]sulfonyl}(3-methylbutyl)amino]hexyl}-Nα-methyl-β-phenyl-L-phenylalaninamide], for which the IC50 in test [1] (setting [3]) was determined as 0.01 nM. The IC95 in test [2] turned out to be 8 nM.

In the case of `CN[C@H](C(=O)N[C@H](CCC[C@@H](CO)N(CCC(C)C)S(=O)(=O)c1ccc(CO)cc1)C(C)C)C(c1ccccc1)c1ccccc1` [Example J29, N-{(1R,5S)-6-hydroxy-5-[{[4-(hydroxymethyl)phenyl]sulfonyl}(3-methylbutyl)amino]-1-isopropylhexyl}-Nα-methyl-β-phenyl-L-phenylalaninamide], in test [1] (setting [3]), the IC50 came out at 0.039 nM. Also, the IC95 in test [2] was found to be 16 nM.

Turning to `COC(=O)N[C@H](C(=O)N[C@H](CCC[C@@H](CO)N(CC(C)C)S(=O)(=O)c1ccc(CO)cc1)C(F)(F)F)C(c1ccccc1)c1ccccc1` [Example J30, N-[(1R,5S)-6-hydroxy-5-[{[4-(hydroxymethyl)phenyl]sulfonyl}(isobutyl)amino]-1-(trifluoromethyl)hexyl]-Nα-(methoxycarbonyl)-β-phenyl-L-phenylalaninamide], the IC50 in test [1] (setting [3]) was 0.01 nM. Further, the IC95 in test [2] was determined as 21 nM.

Consider `CC[C@@H](CCC[C@@H](CO)N(CCC(C)C)S(=O)(=O)c1ccc(CO)cc1)NC(=O)[C@@H](N)C(c1ccccc1)c1ccccc1` [Example J31, N-{(1S,5S)-1-ethyl-6-hydroxy-5-[{[4-(hydroxymethyl)phenyl]sulfonyl}(3-methylbutyl)amino]hexyl}-β-phenyl-L-phenylalaninamide hydrochloride], for which, in test [1], 0.01 nM corresponded to half-maximal inhibition (IC50). In addition, the IC95 in test [2] amounted to 23 nM.

For `CC[C@@H](CCC[C@@H](CO)N(CC(C)C)S(=O)(=O)c1ccc(CO)cc1)NC(=O)[C@@H](N)C(c1ccccc1)c1ccccc1` [Example J32, N-{(1S,5S)-1-ethyl-6-hydroxy-5-[{[4-(hydroxymethyl)phenyl]sulfonyl}(isobutyl)amino]hexyl}-β-phenyl-L-phenylalaninamide hydrochloride], the midpoint of inhibition in test [1], the IC50, lay at 0.01 nM. Moreover, the IC95 in test [2] was 25 nM.
